Results from patent US8716440B2, “Method of liberating and recovering peptide” (Sysmex Corporation, priority 2011, dated 2014).
Residues, ends and D or L forms follow the SMILES beside them.

Tests used:
[1] = molecular target: T1, bovine serum albumin (BSA) (Bos taurus, UniProt P02769); test: Fluorescence titration method, Kd between BSA and peptide; assay type: binding
T1 construct: purchased Sigma-Aldrich Japan Inc
Excerpt: FITC-SA21 (Biologica Co, Ltd.) in which SA21 consisting of 18 amino acids was labeled with fluorescein isothiocyanate (FITC) (a green fluorescent dye) was used as a peptide. The SA21 is an acidic peptide. The used albumin was BSA (Sigma-Aldrich Japan Inc.).

[2] = molecular target: T2, human serum albumin (HSA) (Homo sapiens, UniProt P02768); test: Fluorescence titration method, Kd between HSA and peptide; assay type: binding; details: solution in ultrapure water: ACTH partial peptide 34 μM, TMR-ACTH partial peptide 6 μM, HSA 600 μM
T2 construct: purchased Sigma-Aldrich Japan Inc
Excerpt: The ACTH is a basic peptide. The used albumin was human serum albumin (HSA, Sigma-Aldrich Japan Inc.).

T1 sequence (P02769 25-607): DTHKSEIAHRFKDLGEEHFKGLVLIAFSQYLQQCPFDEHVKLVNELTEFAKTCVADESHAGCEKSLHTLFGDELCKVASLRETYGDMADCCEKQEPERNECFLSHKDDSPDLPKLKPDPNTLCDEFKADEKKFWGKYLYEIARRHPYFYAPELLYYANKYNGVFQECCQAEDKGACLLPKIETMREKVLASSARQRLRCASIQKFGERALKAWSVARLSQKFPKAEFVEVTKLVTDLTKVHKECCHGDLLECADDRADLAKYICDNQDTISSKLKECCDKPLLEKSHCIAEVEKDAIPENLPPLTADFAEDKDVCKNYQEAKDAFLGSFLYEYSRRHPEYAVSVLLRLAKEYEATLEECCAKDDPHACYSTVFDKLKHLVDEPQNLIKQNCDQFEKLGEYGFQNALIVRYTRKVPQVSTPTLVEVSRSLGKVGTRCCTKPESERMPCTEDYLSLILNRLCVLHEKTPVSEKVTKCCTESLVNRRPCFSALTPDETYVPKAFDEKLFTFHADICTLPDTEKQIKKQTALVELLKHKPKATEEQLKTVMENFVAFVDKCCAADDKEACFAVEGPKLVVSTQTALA
T2 sequence (P02768 25-609): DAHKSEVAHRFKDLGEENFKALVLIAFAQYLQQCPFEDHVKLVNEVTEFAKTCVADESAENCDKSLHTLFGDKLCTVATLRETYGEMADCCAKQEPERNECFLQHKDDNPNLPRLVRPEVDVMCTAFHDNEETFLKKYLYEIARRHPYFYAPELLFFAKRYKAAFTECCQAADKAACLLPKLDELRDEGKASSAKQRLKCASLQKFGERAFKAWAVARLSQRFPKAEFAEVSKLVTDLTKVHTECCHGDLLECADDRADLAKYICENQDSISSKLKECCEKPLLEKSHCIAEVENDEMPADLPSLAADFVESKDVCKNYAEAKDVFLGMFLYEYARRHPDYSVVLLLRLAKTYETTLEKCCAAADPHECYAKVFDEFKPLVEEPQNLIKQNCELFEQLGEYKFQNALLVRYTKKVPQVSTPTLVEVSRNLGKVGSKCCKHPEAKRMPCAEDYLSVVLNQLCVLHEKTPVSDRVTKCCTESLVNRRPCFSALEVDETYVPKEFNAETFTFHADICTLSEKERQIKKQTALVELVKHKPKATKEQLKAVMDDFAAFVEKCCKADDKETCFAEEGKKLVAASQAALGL

SMILES	Kd ([1]; fluorescence titration, read-out: Kd value between the BSA and FITC-SA21) [µM]	fraction of FITC-SA21 forming a complex with albumin ([1]; solution in ultrapure water: FITC-SA21 43 (M, BSA 100 (M)), printed as complex with the HSA) [%]	affinity of binding to BSA relative to affinity of binding between the HSA and ACTH partial peptide ([1]; times stronger than HSA/ACTH partial peptide binding) [times]	fraction of peptide forming a complex with the HSA [2] [%]
CC[C@H](C)[C@H](NC(=O)[C@H](CC(C)C)NC(=O)[C@H](CCCNC(=N)N)NC(=S)Nc1ccc2c(c1)C(=O)OC21c2ccc(O)cc2Oc2cc(O)ccc21)C(=O)N[C@@H](CCC(=O)O)C(=O)N[C@@H](CC(=O)O)C(=O)N[C@H](C(=O)N[C@H]1CSSC[C@@H](C(=O)N[C@@H](CC(C)C)C(=O)N[C@@H](Cc2c[nH]c3ccccc23)C(=O)N[C@@H](CCC(=O)O)C(=O)N[C@@H](CC(=O)O)C(=O)N[C@@H](CC(=O)O)C(N)=O)NC(=O)CNC(=O)[C@H](Cc2c[nH]c3ccccc23)NC(=O)[C@H](CCCNC(=N)N)NC(=O)[C@@H]2CCCN2C(=O)[C@H](CC(C)C)NC1=O)[C@@H](C)CC [FITC-SA21] (HELM PEPTIDE1{[O=C1OC2(c3ccc(O)cc3Oc3cc(O)ccc32)c2ccc(NC(=S)[*:2])cc21].R.L.I.E.D.I.C.L.P.R.W.G.C.L.W.E.D.D.[am]}$PEPTIDE1,PEPTIDE1,8:R3-14:R3$$$V2.0; N-terminus and C-terminus assumed)	≤ 1	98.3	6	–
CSCC[C@H](NC(=O)[C@H](CO)NC(=O)[C@H](Cc1ccc(O)cc1)NC(=O)[C@H](CO)NC(=O)c1ccc2c(c1)C(=O)OC21c2ccc(N(C)C)cc2Oc2cc(N(C)C)ccc21)C(=O)N[C@@H](CCC(=O)O)C(=O)N[C@@H](Cc1c[nH]cn1)C(=O)N[C@@H](Cc1ccccc1)C(=O)N[C@@H](CCCNC(=N)N)C(=O)N[C@@H](Cc1c[nH]c2ccccc12)C(=O)NCC(=O)N[C@@H](CCCCN)C(=O)N1CCC[C@H]1C(=O)N[C@H](C(=O)NCC(=O)N[C@@H](CCCCN)C(=O)N[C@@H](CCCCN)C(=O)N[C@@H](CCCNC(=N)N)C(=O)N[C@@H](CCCNC(=N)N)C(=O)N1CCC[C@H]1C(=O)N[C@H](C(=O)N[C@@H](CCCCN)C(=O)N[C@H](C(=O)N[C@@H](Cc1ccc(O)cc1)C(=O)N1CCC[C@H]1C(=O)O)C(C)C)C(C)C)C(C)C [TMR-ACTH partial peptide]	–	–	–	98.9
